A value given as a limit tells only on which side of the number the result lay.

For this assay, the target named is T1, prostanoid EP3 receptors (Homo sapiens, UniProt P43115).
T1 sequence (P43115 1-390): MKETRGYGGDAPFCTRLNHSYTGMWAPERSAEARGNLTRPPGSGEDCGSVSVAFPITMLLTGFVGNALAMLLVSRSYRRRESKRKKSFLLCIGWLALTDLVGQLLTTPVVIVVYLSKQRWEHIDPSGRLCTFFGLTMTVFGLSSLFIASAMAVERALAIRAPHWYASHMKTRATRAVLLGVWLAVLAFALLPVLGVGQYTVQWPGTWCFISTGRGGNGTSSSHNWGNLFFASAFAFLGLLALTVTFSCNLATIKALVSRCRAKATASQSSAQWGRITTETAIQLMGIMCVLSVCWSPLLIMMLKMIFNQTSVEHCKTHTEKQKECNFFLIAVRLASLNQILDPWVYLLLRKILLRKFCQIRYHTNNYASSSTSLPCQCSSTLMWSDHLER
The assay can be described thus: binding on prostanoid EP3 receptors (method of Abramovitz et al.). As to conditions: read-out: Activity (EP3 receptor binding, IC50 class). The method, then: The compounds of the invention were assayed for their binding on prostanoid EP3 receptors according to the method of Abramovitz et al. [Bioch. Biophys.
As a reminder, the IC50 is the concentration needed to halve the response being measured. Turning to `Cn1cc(C=CC(=O)NS(=O)(=O)c2cc(Cl)c(Cl)s2)c2c(Oc3ccc(Cl)cc3Cl)cccc21` [Compound P303], the IC50 was < 1000 nM.

Regarding `Cc1cn(Cc2cn3ccccc3n2)c2c(/C=C/C(=O)NS(=O)(=O)c3cccc(Cl)c3)cc(F)cc12` [Compound P400], the IC50 is < 1000 nM.

Consider `Cc1cn(Cc2cn3ccccc3n2)c2c(C=CC(=O)NS(=O)(=O)c3cc(F)ccc3F)cc(F)cc12` [Compound P407], for which the IC50 was < 1000 nM.

Regarding `Cc1cn(Cc2ccc(F)cc2)c2c(C=CC(=O)NS(=O)(=O)c3ccc(F)c(F)c3)cc(F)cc12` [Compound P314], the IC50 was < 1000 nM. For `O=C(COc1cccc2[nH]cc(Sc3ccccc3Cl)c12)NS(=O)(=O)c1cc(Cl)c(Cl)s1` [Compound P213], the IC50 was < 1000 nM. Consider `Cc1cn(Cc2ccc(Cl)cc2Cl)c2c(CCC(=O)NS(=O)(=O)c3cc(Cl)c(Cl)s3)cccc12` [Compound P072], for which the IC50 is < 1000 nM. As for `CC1C(=O)N(Cc2ccc(Cl)cc2Cl)c2c(C=CC(=O)NS(=O)(=O)c3cccs3)cccc21` (centres unmarked) [Compound P058], the figure is < 1000 nM. As for `COc1ccc(S(=O)(=O)NC(=O)C=Cc2cn(C)c3cccc(Oc4ccc5ccccc5c4)c23)cc1` [Compound P366], the figure is < 1000 nM; as for `O=C(Cn1c(=O)ccc2cccc(OCc3ccc4ccccc4c3)c21)NS(=O)(=O)c1cccs1` [Compound P012], > 10000 nM. The same measure for `Cn1nnnc1Sc1c[nH]c2cccc(OCC(=O)NS(=O)(=O)c3cc(Cl)c(Cl)s3)c12` [Compound P227]: < 1000 nM. For the molecule `CC12CCCC(C=CC(=O)NS(=O)(=O)c3cccs3)=C1N(Cc1ccc(Cl)cc1Cl)C(=O)C2` (centres unmarked) [Compound P276], the IC50 was < 1000 nM.

With `COc1ccc(S(=O)(=O)c2c[nH]c3cccc(OCC(=O)NS(=O)(=O)c4cc(Cl)c(Cl)s4)c23)cc1` [Compound P210], the IC50 is < 1000 nM. The same measure for `O=C(COc1cccc2c1C(Cc1ccc3ccccc3c1)C(=O)N2)NS(=O)(=O)c1cc(Cl)c(Cl)s1` (centres unmarked) [Compound P158]: < 1000 nM; for `Cc1cn(Cc2cccc(OC(F)(F)F)c2)c2c(/C=C/C(=O)NS(=O)(=O)c3cc(Cl)c(Cl)s3)cccc12` [Compound P140]: < 1000 nM.

Consider `COc1c(C)cnc(Cn2ccc3cccc(C=CC(=O)NS(=O)(=O)c4cccs4)c32)c1C` [Compound P055], for which the 50% inhibitory concentration (IC50) is 1000 to 10000 nM.

For `O=C(COc1cccc2[nH]cc(S(=O)(=O)c3ccc4ccccc4c3)c12)NS(=O)(=O)c1cccc(Cl)c1` [Compound P192], the IC50 was < 1000 nM. As for `COc1cccc(Cn2cc(C)c3cccc(/C=C/C(=O)NS(=O)(=O)c4cc(Cl)c(Cl)s4)c32)c1` [Compound P142], the figure is < 1000 nM.

Consider `Cc1ccc(S(=O)(=O)c2c[nH]c3cccc(OCC(=O)NS(=O)(=O)c4cc(Cl)c(Cl)s4)c23)c(C)c1` [Compound P172], for which the IC50 is < 1000 nM. Regarding `CCOC(=O)C12CCCC(C=CC(=O)NS(=O)(=O)c3ccc(F)c(F)c3)=C1N(Cc1ccc(Cl)cc1Cl)C(=O)C2` (centres unmarked) [Compound P346], the 50% inhibitory concentration (IC50) was < 1000 nM. Regarding `Cn1cc(C=CC(=O)NS(=O)(=O)c2cc(F)c(F)cc2F)c2c(Oc3ccc(Cl)cc3)cccc21` [Compound P309], the IC50 is < 1000 nM. The same measure for `COc1cccc(CN2C(=O)CC3(C)CCCC(C=CC(=O)NS(=O)(=O)c4cc(F)cc(F)c4)=C23)c1` (centres unmarked) [Compound P307]: < 1000 nM.

As for `CC12CCCC(C=CC(=O)NS(=O)(=O)c3cc(Cl)c(Cl)s3)=C1N(Cc1cccc(Cl)c1Cl)C(=O)C2` (centres unmarked) [Compound P299], the IC50 was < 1000 nM.

As for `Cc1ccc(C)c(CN2C(=O)COc3cccc(OCC(=O)NS(=O)(=O)c4cccs4)c32)c1` [Compound P021], the IC50 fell in the range of 1000 to 10000 nM. For `O=C(C=Cc1cccc2c1N(Cc1ccc3ccccc3c1)C(=O)C21OCCO1)NS(=O)(=O)c1cc(Cl)c(Cl)s1` [Compound P114], the IC50 was < 1000 nM.

In the case of `Cc1cn(Cc2ccc(Cl)cc2)c2c(/C=C/C(=O)NS(=O)(=O)c3cc(Cl)c(Cl)s3)cccc12` [Compound P137], the IC50 is < 1000 nM. The same measure for `Cc1cn(Cc2cc(F)cc(F)c2)c2c(/C=C/C(=O)NS(=O)(=O)c3cccs3)cccc12` [Compound P088]: < 1000 nM; for `CN1C(=O)C(C)(Cc2ccc3ccccc3c2)c2c(C=CC(=O)NS(=O)(=O)c3cc(Cl)c(Cl)s3)cccc21` (centres unmarked) [Compound P148]: < 1000 nM. For `O=C(/C=C/c1cccc2c1N(Cc1ccc3ccccc3c1)CC2)NS(=O)(=O)c1cccs1` [Compound P003], the IC50 is < 1000 nM.

Consider `Cn1cc(C=CC(=O)NS(=O)(=O)c2cc(F)c(F)cc2F)c2c(Oc3ccc(F)c(Cl)c3)cccc21` [Compound P328], for which the IC50 is < 1000 nM. As for `Cn1cc(C=CC(=O)NS(=O)(=O)c2cc(Cl)c(Cl)s2)c2c(Oc3cccc(Cl)c3Cl)cccc21` [Compound P291], the figure is < 1000 nM; as for `CC12CCCC(CCC(=O)NS(=O)(=O)c3cc(F)c(F)cc3F)C1N(Cc1ccc(F)c(F)c1)C(=O)C2` (centres unmarked) [Compound P410], < 1000 nM; as for `CC12CCCC(C=CC(=O)NS(=O)(=O)c3ccc(F)c(F)c3)=C1N(Cc1ccc(F)c(F)c1)C(=O)C2` (centres unmarked) [Compound P304], < 1000 nM. In the case of `O=C(COc1cccc2[nH]cc(Sc3ccc(Cl)cc3Cl)c12)NS(=O)(=O)c1cc(Cl)c(Cl)s1` [Compound P205], the IC50 is < 1000 nM.

On to `Cc1cn(Cc2ccc(F)cc2)c2c(/C=C/C(=O)NS(=O)(=O)c3cc(Cl)c(Cl)s3)cccc12` [Compound P120], for which the IC50 is < 1000 nM.

Turning to `CC1C(=O)N(Cc2ccc3ccccc3c2)c2c(C=CC(=O)NS(=O)(=O)c3cccs3)cc(F)cc21` (centres unmarked) [Compound P066], the IC50 is < 1000 nM. `Cc1cn(Cc2cn3ccccc3n2)c2c(C=CC(=O)NS(=O)(=O)c3ccc(F)cc3F)cc(F)cc12` [Compound P413]: the IC50 is < 1000 nM.

On to `Cn1cc(C=CC(=O)NS(=O)(=O)c2cc(F)c(F)cc2F)c2c(Oc3ccc4ncccc4c3)cccc21` [Compound P377], for which the half-maximal inhibitory concentration (IC50) was < 1000 nM. The same measure for `COc1ccccc1Sc1c[nH]c2cccc(OCC(=O)NS(=O)(=O)c3cc(Cl)c(Cl)s3)c12` [Compound P212]: < 1000 nM. Regarding `O=C(COc1cccc2[nH]cc(Sc3ccc(Cl)c(Cl)c3)c12)NS(=O)(=O)c1cc(Cl)c(Cl)s1` [Compound P178], the 50% inhibitory concentration (IC50) was < 1000 nM. As to `COc1cc(Cn2cc(C)c3cc(F)cc(C=CC(=O)NS(=O)(=O)c4ccc(F)c(F)c4)c32)cc(OC)c1` [Compound P374], the IC50 was < 1000 nM. As for `O=C(C=Cc1cccc2c1N(Cc1ccc(Cl)cc1Cl)C(=O)C2O)NS(=O)(=O)c1cc(Cl)c(Cl)s1` (centres unmarked) [Compound P130], the figure is < 1000 nM.

For the molecule `Cc1cn(CCC(=O)NS(=O)(=O)c2cc(Cl)c(Cl)s2)c2c(Oc3ccc(Cl)c(Cl)c3)cc(F)cc12` [Compound P388], the IC50 was < 1000 nM. For the molecule `Cn1cc(C=CC(=O)NS(=O)(=O)c2cc(Cl)c(Cl)s2)c2c(Oc3ccc(F)c(Cl)c3)cccc21` [Compound P330], the IC50 was < 1000 nM. As for `Cc1cn(Cc2ccc(OC(F)F)cc2)c2c(/C=C/C(=O)NS(=O)(=O)c3cc(Cl)c(Cl)s3)cccc12` [Compound P145], the figure is < 1000 nM; as for `O=C(C=Cc1cccc2c1N(Cc1ccc3ccccc3c1)C(=O)C2=O)NS(=O)(=O)c1cc(Cl)c(Cl)s1` [Compound P115], < 1000 nM; as for `Cn1cc(Oc2ccc3ccccc3c2)c2c(C=CC(=O)NS(=O)(=O)c3cc(Cl)c(Cl)s3)cccc21` [Compound P277], < 1000 nM. The same measure for `CC12CCCC(C=CC(=O)NS(=O)(=O)c3cc(F)cc(F)c3)=C1N(Cc1ccc(F)cc1)C(=O)C2` (centres unmarked) [Compound P295]: < 1000 nM. With `O=C(C=Cc1cccc2c1N(Cc1ccc(Cl)cc1Cl)C(=O)C2(F)F)NS(=O)(=O)c1cccs1` [Compound P216], the IC50 is < 1000 nM.

Take `O=C(COc1cccc2c1N(Cc1ccccc1C(F)(F)F)C(=O)CO2)NS(=O)(=O)c1cccs1` [Compound P031]: the IC50 was 1000 to 10000 nM. Regarding `Cc1cn(Cc2ccc(Cl)cc2Cl)c2c(C(=O)NS(=O)(=O)c3ccc(F)c(F)c3)cc(F)cc12` [Compound P417], the IC50 was < 1000 nM. The same measure for `Cc1cn(Cc2c(Cl)cccc2Cl)c2c(/C=C/C(=O)NS(=O)(=O)c3cc(Cl)c(Cl)s3)cccc12` [Compound P124]: < 1000 nM. The same measure for `Cc1cn(CCC(=O)NS(=O)(=O)c2cc(F)c(F)cc2F)c2c(Oc3ccc(Cl)c(Cl)c3)cc(F)cc12` [Compound P386]: < 1000 nM; for `Cc1cn(Cc2cn3ccccc3n2)c2c(C=CC(=O)NS(=O)(=O)c3cc(Cl)cc(Cl)c3)cc(F)cc12` [Compound P408]: < 1000 nM. Turning to `CC12CCCC(C=CC(=O)NS(=O)(=O)c3ccc(Cl)s3)=C1N(Cc1ccc(Cl)cc1Cl)C(=O)C2` (centres unmarked) [Compound P279], the IC50 is < 1000 nM. For `Cn1cc(C=CC(=O)NS(=O)(=O)c2ccc(F)c(F)c2)c2c(Oc3ccc(F)c(F)c3)cccc21` [Compound P319], the IC50 was < 1000 nM.

`CC12CCCC(C=CC(=O)NS(=O)(=O)c3cc(F)cc(F)c3)=C1N(Cc1ccc(F)c(F)c1)C(=O)C2` (centres unmarked) [Compound P305]: the IC50 was < 1000 nM.

Regarding `O=C(C=Cc1cccc2c1C(Nc1cc(Cl)cc(Cl)c1)C(=O)N2)NS(=O)(=O)c1cc(Cl)c(Cl)s1` (centres unmarked) [Compound P286], the IC50 is < 1000 nM. As for `COc1cccc(CN2C(=O)CC3(C)CCCC(C=CC(=O)NS(=O)(=O)c4ccc(F)c(F)c4)=C23)c1` (centres unmarked) [Compound P308], the figure is < 1000 nM; as for `CC12CCCC(C=CC(=O)NS(=O)(=O)c3cc(Cl)c(Cl)s3)=C1N(Cc1ccc(F)cc1)C(=O)C2` (centres unmarked) [Compound P263], < 1000 nM.

The record behind these values is US7598397B2, “Sulfonamide peri-substituted bicyclics for occlusive artery disease” (deCODE genetics ehf, priority 2004, dated 2009).
